# Values quoted from earlier work, collected in patent US20220096467A1, “COMBINATION OF SELECTIVE ALPHA-ADRENERGIC RECEPTOR AGONIST OR AN ANTICHOLINERGIC AGENT AND LIPOIC ACID AND USES THEREOF” (Cellix Bio Private Limited, priority 2019, published 2022).
# System: eyes of patients who had open angle glaucoma
# Settings: 150 mg of ALA per day, controls received only topical medical therapy
smiles,measurement,value
"O=C(O)CCCCC1CCSS1 (stereo not drawn) [ALA, alpha lipoic acid]",Eyes in the study with enhanced color visual fields and visual sensitivity versus the controls,45-47%
